The structures appear in SMILES notation.

As usually defined, the melting point is the temperature of the solid-liquid transition. Compound `CCS(=O)(=O)O.CCS(=O)(=O)O.O=C(N[C@@H](c1ccccc1)c1ccccn1)c1cnc2cc(NC(=O)c3ccccc3-c3ccc(C(F)(F)F)cc3)ccc2c1` [Example 2D, (S)-7-[(4′-Trifluoromethyl-biphenyl-2-carbonyl)-amino]-quinoline-3-carboxylic acid (phenyl-pyridin-2-yl-methyl)-amide, bis-ethanesulfonate] displayed a melting point of 158 °C.
